ChEMBL document CHEMBL1212695, “An allosteric potentiator of M4 mAChR modulates hippocampal synaptic transmission” (Nat Chem Biol, 2008)
Active and inactive are the calls of the source. The calls are words filed in the database; no cut-off is given here.

Key:
[1] = target: T1, Muscarinic acetylcholine receptor M4 (Mus musculus) (UniProt P32211); test: Agonist activity at muscarinic M4 receptor in wild type mouse hippocampal CA1 pyramidal neuron assessed as increase in carbachol-induced reduction in excitatory postsynaptic current at 5 uM by whole-cell electrophysiology relative to control; type: functional, tissue-based; set-up: scale not given: the % may be the effect or the level left; settings: Hippocampus
T1 sequence (whole entry): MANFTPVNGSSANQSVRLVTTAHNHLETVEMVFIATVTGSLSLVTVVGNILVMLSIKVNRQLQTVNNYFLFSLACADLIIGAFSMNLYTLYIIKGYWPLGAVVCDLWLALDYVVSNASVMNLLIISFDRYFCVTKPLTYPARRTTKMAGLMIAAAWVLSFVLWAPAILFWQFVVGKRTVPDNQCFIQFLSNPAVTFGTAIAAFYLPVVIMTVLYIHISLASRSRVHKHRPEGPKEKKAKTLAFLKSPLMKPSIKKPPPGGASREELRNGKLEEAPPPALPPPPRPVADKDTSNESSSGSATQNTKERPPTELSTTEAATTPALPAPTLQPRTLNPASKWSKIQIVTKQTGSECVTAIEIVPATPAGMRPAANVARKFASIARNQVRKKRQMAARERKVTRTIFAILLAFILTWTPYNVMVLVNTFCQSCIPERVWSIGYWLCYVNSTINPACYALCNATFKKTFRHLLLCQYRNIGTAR

[2] = Agonist activity at muscarinic receptor in M4 receptor knock out mouse hippocampal CA1 pyramidal neuron assessed as reduction of inhibitory postsynaptic current amplitude at 2 uM by whole-cell electrophysiology in presence of carbachol relative to control; type: functional; settings: Hippocampus
CHO = test: Allosteric activation at P2Y1 receptor in CHO cells assessed as potentiation of acetylcholine-induced calcium mobilization at 10 uM after 1 hr by fluorescence assay; type: cell-based; settings: Cricetulus griseus
[3] = target: T2, Muscarinic acetylcholine receptor M4 (Rattus norvegicus) (UniProt P08485); test: Agonist activity at muscarinic M4 receptor in Sprague-Dawley rat hippocampal CA1 pyramidal neuron assessed as reduction of inhibitory postsynaptic current at 0.5 uM by whole-cell electrophysiology relative to control; type: functional, tissue-based; settings: Hippocampus
T2 sequence (whole entry): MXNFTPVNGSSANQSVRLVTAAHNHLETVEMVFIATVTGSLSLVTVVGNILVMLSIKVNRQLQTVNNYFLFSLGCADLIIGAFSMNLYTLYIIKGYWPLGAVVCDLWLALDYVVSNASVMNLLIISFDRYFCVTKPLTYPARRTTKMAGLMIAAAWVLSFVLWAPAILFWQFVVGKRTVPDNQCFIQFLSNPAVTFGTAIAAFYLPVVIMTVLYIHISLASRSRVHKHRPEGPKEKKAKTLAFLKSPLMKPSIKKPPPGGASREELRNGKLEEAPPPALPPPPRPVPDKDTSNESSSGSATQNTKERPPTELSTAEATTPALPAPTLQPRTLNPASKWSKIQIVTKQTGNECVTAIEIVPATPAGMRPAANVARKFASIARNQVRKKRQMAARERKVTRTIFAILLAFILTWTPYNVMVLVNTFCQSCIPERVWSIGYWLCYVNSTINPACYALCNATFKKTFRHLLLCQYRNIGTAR

Question: Which Activity [1] does the source give for `Cc1cc(C)c2c(N)c(C(=O)NCc3ccc(Cl)cc3)sc2n1` here?
Answer: The Activity was 39.8%.

Question: What about the inhibition at 2 µM [2] of the same compound?
Answer: Its inhibition at 2 µM is 60.2%.

Question: What about the Activity (CHO) of the same compound?
Answer: The Activity was “inactive”.

Question: And the inhibition [3]?
Answer: The inhibition was 62.2%.
